Results taken from patent publication US20220370406A1, “METHOD OF TREATING STIMULANT USE DISORDER USING A COMBINATION OF TOPIRAMATE AND PHENTERMINE” (University of Kentucky Research Foundation, priority 2019, published 2022).

Test system: participants with cocaine use disorder
Test: Medical safety session: subjective effects questionnaires after intranasal cocaine
Format: in vivo, human
Experimental: Participants completed one, single-blind medical safety session to ensure they could tolerate intranasal cocaine. Intranasal cocaine doses (i.e., 0 [placebo], 10, 20, 40 and 80 mg) were administered in ascending order. Placebo (i.e., 0 mg) was administered at 0900 hours. The subjective-effect questionnaires and cardiovascular measures described below were completed 30 minutes before placebo administration (i.e., 0830 hours), immediately following and at 15-minute intervals for 45 minutes. Subsequent cocaine administrations were separated by 45 minutes.

[1] = Cocaine 10 mg, Topiramate (0 mg/day) group
[2] = Cocaine 10 mg, Topiramate (50 mg/day) group
[3] = Cocaine 10 mg, Topiramate (100 mg/day) group
[4] = Cocaine 20 mg, Topiramate (0 mg/day) group
[5] = Cocaine 20 mg, Topiramate (50 mg/day) group
[6] = Cocaine 20 mg, Topiramate (100 mg/day) group

## COC(=O)[C@H]1[C@@H](OC(=O)c2ccccc2)C[C@@H]2CC[C@H]1N2C [Cocaine, cocaine]
[1]
  Adjective Rating Scales Sedative, mean peak effect: 2.0
  Adjective Rating Scales Stimulant, mean peak effect: 6.1
  Drug-Effect Questionnaire Active-Alert-Energetic, mean peak effect: 17.0
  Drug-Effect Questionnaire Any Effect, mean peak effect: 21.5
  Drug-Effect Questionnaire Bad Effects, mean peak effect: 4.4
  Drug-Effect Questionnaire Euphoric, mean peak effect: 10.1
  Drug-Effect Questionnaire Good Effects, mean peak effect: 21.5
  Drug-Effect Questionnaire High, mean peak effect: 17.3
  Drug-Effect Questionnaire Irregular Heart Beat, mean peak effect: 7.0
  Drug-Effect Questionnaire Like Drug, mean peak effect: 25.2
  Drug-Effect Questionnaire Nausea-Queasy-Sick, mean peak effect: 3.3
  Drug-Effect Questionnaire Nervous-Anxious, mean peak effect: 5.1
  Drug-Effect Questionnaire Performance Impaired, mean peak effect: 4.9
  Drug-Effect Questionnaire Performance Improved, mean peak effect: 10.7
  Drug-Effect Questionnaire Restless, mean peak effect: 7.9
  Drug-Effect Questionnaire Rush, mean peak effect: 15.5
  Drug-Effect Questionnaire Shaky-Jittery, mean peak effect: 3.9
  Drug-Effect Questionnaire Sluggish-Fatigued-Lazy, mean peak effect: 8.1
  Drug-Effect Questionnaire Stimulated, mean peak effect: 13.8
  Drug-Effect Questionnaire Talkative-Friendly, mean peak effect: 17.0
  Drug-Effect Questionnaire Willing to Pay For, mean peak effect: 20.6
  Drug-Effect Questionnaire Willing to Take Again, mean peak effect: 26.3
[2]
  Adjective Rating Scales Sedative, mean peak effect: 3.9
  Adjective Rating Scales Stimulant, mean peak effect: 8.7
  Drug-Effect Questionnaire Active-Alert-Energetic, mean peak effect: 11.2
  Drug-Effect Questionnaire Any Effect, mean peak effect: 7.0
  Drug-Effect Questionnaire Bad Effects, mean peak effect: 1.2
  Drug-Effect Questionnaire Euphoric, mean peak effect: 3.4
  Drug-Effect Questionnaire Good Effects, mean peak effect: 6.4
  Drug-Effect Questionnaire High, mean peak effect: 6.1
  Drug-Effect Questionnaire Irregular Heart Beat, mean peak effect: 0.6
  Drug-Effect Questionnaire Like Drug, mean peak effect: 9.2
  Drug-Effect Questionnaire Nausea-Queasy-Sick, mean peak effect: 1.2
  Drug-Effect Questionnaire Nervous-Anxious, mean peak effect: 0.3
  Drug-Effect Questionnaire Performance Impaired, mean peak effect: 0.9
  Drug-Effect Questionnaire Performance Improved, mean peak effect: 3.3
  Drug-Effect Questionnaire Restless, mean peak effect: 1.2
  Drug-Effect Questionnaire Rush, mean peak effect: 5.9
  Drug-Effect Questionnaire Shaky-Jittery, mean peak effect: 1.4
  Drug-Effect Questionnaire Sluggish-Fatigued-Lazy, mean peak effect: 5.4
  Drug-Effect Questionnaire Stimulated, mean peak effect: 11.9
  Drug-Effect Questionnaire Talkative-Friendly, mean peak effect: 4.7
  Drug-Effect Questionnaire Willing to Pay For, mean peak effect: 5.4
  Drug-Effect Questionnaire Willing to Take Again, mean peak effect: 12.0
[3]
  Adjective Rating Scales Sedative, mean peak effect: 3.1
  Adjective Rating Scales Stimulant, mean peak effect: 10.6
  Drug-Effect Questionnaire Active-Alert-Energetic, mean peak effect: 6.4
  Drug-Effect Questionnaire Any Effect, mean peak effect: 10.7
  Drug-Effect Questionnaire Bad Effects, mean peak effect: 0.2
  Drug-Effect Questionnaire Euphoric, mean peak effect: 5.6
  Drug-Effect Questionnaire Good Effects, mean peak effect: 14.5
  Drug-Effect Questionnaire High, mean peak effect: 7.4
  Drug-Effect Questionnaire Irregular Heart Beat, mean peak effect: 2.8
  Drug-Effect Questionnaire Like Drug, mean peak effect: 10.1
  Drug-Effect Questionnaire Nausea-Queasy-Sick, mean peak effect: 6.8
  Drug-Effect Questionnaire Nervous-Anxious, mean peak effect: 0.2
  Drug-Effect Questionnaire Performance Impaired, mean peak effect: 0.2
  Drug-Effect Questionnaire Performance Improved, mean peak effect: 2.1
  Drug-Effect Questionnaire Restless, mean peak effect: 0.7
  Drug-Effect Questionnaire Rush, mean peak effect: 6.9
  Drug-Effect Questionnaire Shaky-Jittery, mean peak effect: 0.3
  Drug-Effect Questionnaire Sluggish-Fatigued-Lazy, mean peak effect: 0.5
  Drug-Effect Questionnaire Stimulated, mean peak effect: 7.7
  Drug-Effect Questionnaire Talkative-Friendly, mean peak effect: 7.8
  Drug-Effect Questionnaire Willing to Pay For, mean peak effect: 8.6
  Drug-Effect Questionnaire Willing to Take Again, mean peak effect: 12.6
[4]
  Adjective Rating Scales Sedative, mean peak effect: 4.6
  Adjective Rating Scales Stimulant, mean peak effect: 8.4
  Drug-Effect Questionnaire Active-Alert-Energetic, mean peak effect: 23.5
  Drug-Effect Questionnaire Any Effect, mean peak effect: 28.6
  Drug-Effect Questionnaire Bad Effects, mean peak effect: 4.5
  Drug-Effect Questionnaire Euphoric, mean peak effect: 11.5
  Drug-Effect Questionnaire Good Effects, mean peak effect: 26.1
  Drug-Effect Questionnaire High, mean peak effect: 20.0
  Drug-Effect Questionnaire Irregular Heart Beat, mean peak effect: 8.8
  Drug-Effect Questionnaire Like Drug, mean peak effect: 27.8
  Drug-Effect Questionnaire Nausea-Queasy-Sick, mean peak effect: 2.9
  Drug-Effect Questionnaire Nervous-Anxious, mean peak effect: 8.5
  Drug-Effect Questionnaire Performance Impaired, mean peak effect: 10.4
  Drug-Effect Questionnaire Performance Improved, mean peak effect: 12.0
  Drug-Effect Questionnaire Restless, mean peak effect: 8.9
  Drug-Effect Questionnaire Rush, mean peak effect: 19.4
  Drug-Effect Questionnaire Shaky-Jittery, mean peak effect: 8.8
  Drug-Effect Questionnaire Sluggish-Fatigued-Lazy, mean peak effect: 6.8
  Drug-Effect Questionnaire Stimulated, mean peak effect: 18.7
  Drug-Effect Questionnaire Talkative-Friendly, mean peak effect: 18.6
  Drug-Effect Questionnaire Willing to Pay For, mean peak effect: 24.9
  Drug-Effect Questionnaire Willing to Take Again, mean peak effect: 32.9
[5]
  Adjective Rating Scales Sedative, mean peak effect: 2.8
  Adjective Rating Scales Stimulant, mean peak effect: 8.6
  Drug-Effect Questionnaire Active-Alert-Energetic, mean peak effect: 12.8
  Drug-Effect Questionnaire Any Effect, mean peak effect: 9.9
  Drug-Effect Questionnaire Bad Effects, mean peak effect: 0.3
  Drug-Effect Questionnaire Euphoric, mean peak effect: 12.4
  Drug-Effect Questionnaire Good Effects, mean peak effect: 11.2
  Drug-Effect Questionnaire High, mean peak effect: 13.1
  Drug-Effect Questionnaire Irregular Heart Beat, mean peak effect: 0.6
  Drug-Effect Questionnaire Like Drug, mean peak effect: 14.6
  Drug-Effect Questionnaire Nausea-Queasy-Sick, mean peak effect: 2.2
  Drug-Effect Questionnaire Nervous-Anxious, mean peak effect: 0.0
  Drug-Effect Questionnaire Performance Impaired, mean peak effect: 2.4
  Drug-Effect Questionnaire Performance Improved, mean peak effect: 5.4
  Drug-Effect Questionnaire Restless, mean peak effect: 0.7
  Drug-Effect Questionnaire Rush, mean peak effect: 14.1
  Drug-Effect Questionnaire Shaky-Jittery, mean peak effect: 1.1
  Drug-Effect Questionnaire Sluggish-Fatigued-Lazy, mean peak effect: 0.8
  Drug-Effect Questionnaire Stimulated, mean peak effect: 15.6
  Drug-Effect Questionnaire Talkative-Friendly, mean peak effect: 10.2
  Drug-Effect Questionnaire Willing to Pay For, mean peak effect: 7.6
  Drug-Effect Questionnaire Willing to Take Again, mean peak effect: 10.2
[6]
  Adjective Rating Scales Sedative, mean peak effect: 3.7
  Adjective Rating Scales Stimulant, mean peak effect: 11.1
  Drug-Effect Questionnaire Active-Alert-Energetic, mean peak effect: 11.0
  Drug-Effect Questionnaire Any Effect, mean peak effect: 11.7
  Drug-Effect Questionnaire Bad Effects, mean peak effect: 2.2
  Drug-Effect Questionnaire Euphoric, mean peak effect: 5.7
  Drug-Effect Questionnaire Good Effects, mean peak effect: 10.2
  Drug-Effect Questionnaire High, mean peak effect: 12.8
  Drug-Effect Questionnaire Irregular Heart Beat, mean peak effect: 3.2
  Drug-Effect Questionnaire Like Drug, mean peak effect: 14.9
  Drug-Effect Questionnaire Nausea-Queasy-Sick, mean peak effect: 10.6
  Drug-Effect Questionnaire Nervous-Anxious, mean peak effect: 6.6
  Drug-Effect Questionnaire Performance Impaired, mean peak effect: 5.5
  Drug-Effect Questionnaire Performance Improved, mean peak effect: 4.0
  Drug-Effect Questionnaire Restless, mean peak effect: 0.2
  Drug-Effect Questionnaire Rush, mean peak effect: 12.4
  Drug-Effect Questionnaire Shaky-Jittery, mean peak effect: 3.1
  Drug-Effect Questionnaire Sluggish-Fatigued-Lazy, mean peak effect: 1.1
  Drug-Effect Questionnaire Stimulated, mean peak effect: 10.5
  Drug-Effect Questionnaire Talkative-Friendly, mean peak effect: 11.2
  Drug-Effect Questionnaire Willing to Pay For, mean peak effect: 11.7
  Drug-Effect Questionnaire Willing to Take Again, mean peak effect: 11.6
